Experimental data from patent US20250189546A1, “METHODS FOR ANALYZING DRUG MOLECULES IN MAMMALIAN TISSUES” (The Scripps Research Institute, priority 2022, published 2025).
Entries after “also recorded” stand apart in the source; their conditions may differ. Where two headings read alike, the source gives them in different places.

Key:
[1] = humans, cited from earlier work
[2] = biological target: T1, FAAH (Mus musculus, UniProt O08914); test: Gel-based CC-ABPP of whole brain lysates; assay type: in vivo; conditions: 20 mg/kg
T1 construct: from tissue; host or cells: mouse brain (C57BL6J wild type)
T1 sequence (O08914 1-579): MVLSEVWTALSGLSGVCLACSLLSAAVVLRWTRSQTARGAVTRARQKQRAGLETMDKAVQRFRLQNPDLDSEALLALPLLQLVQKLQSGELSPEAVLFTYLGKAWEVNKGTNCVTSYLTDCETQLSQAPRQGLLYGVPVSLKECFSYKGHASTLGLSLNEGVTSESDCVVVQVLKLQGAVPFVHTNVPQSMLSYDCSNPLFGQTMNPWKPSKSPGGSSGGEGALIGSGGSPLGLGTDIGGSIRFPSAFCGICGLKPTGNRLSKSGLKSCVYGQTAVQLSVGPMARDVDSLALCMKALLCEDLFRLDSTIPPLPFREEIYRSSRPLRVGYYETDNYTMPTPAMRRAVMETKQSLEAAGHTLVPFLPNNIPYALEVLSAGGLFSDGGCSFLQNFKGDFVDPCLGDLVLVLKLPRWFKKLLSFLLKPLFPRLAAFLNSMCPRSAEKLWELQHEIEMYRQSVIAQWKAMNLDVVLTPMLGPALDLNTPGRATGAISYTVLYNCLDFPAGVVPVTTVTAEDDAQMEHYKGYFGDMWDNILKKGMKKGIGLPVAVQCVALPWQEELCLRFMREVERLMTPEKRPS
Experimental: (§1) For in gel ABPP analysis, after anesthetizing, mice were decapitated and target tissues were harvested and flash frozen in liquid N2 without perfusion or fixation. Each mouse hemisphere and liver were washed with ice cold PBS on ice (2×1 mL) to remove excessive blood. Tissues were homogenized in 1 mL PBS and sonicated for 10 min in ice cold water. Tissues were centrifuged (1000 g, 10 min, 4° C.) and supernatant was then centrifuged at high speed (100,000 g, 45 min, 4° C.). Supernatant was discarded and remaining pellets were gently washed with ice cold PBS (2×0.5 mL). Pellets were resuspended by gentle pipetting and protein concentrations were quantified by the Bio-Rad DC Protein Assay Kit. Proteomes were then diluted to […] for immediate use or aliquoted and stored at −80° C.
(§2) In gel click chemistry ABPP assay: Click chemistry labeling of alkyne inhibitors was performed as previously reported (Niphakis et al., ACS Chem Neurosci 3, 418-426, 2012). Click reaction buffer was prepared by mixing CuSO4 (50 mM in H2O, 1.0 μL/reaction), TBTA (1.7 mM in 1:4 DMSO/t-BuOH, 3.0 μL/reaction), freshly prepared TCEP (50 mM in H2O, 1.0 μL/reaction) and 5-TAMRA azide (1.25 mM in DMSO, 1.0 μL/reaction). For every 50 μL tissue proteome ([…]), 6 μL click buffer was added. Reaction mixture was gently mixed and kept in a dark drawer for 1 hour at RT. […]

[3] = biological target: T2, MAGL (Mus musculus, UniProt O35678); test: Gel-based CC-ABPP of whole brain lysates; assay type: in vivo; conditions: 1 mg/kg
T2 construct: from tissue; host or cells: mouse brain hemisphere, 100,000 g membrane pellet
T2 sequence (O35678 1-303): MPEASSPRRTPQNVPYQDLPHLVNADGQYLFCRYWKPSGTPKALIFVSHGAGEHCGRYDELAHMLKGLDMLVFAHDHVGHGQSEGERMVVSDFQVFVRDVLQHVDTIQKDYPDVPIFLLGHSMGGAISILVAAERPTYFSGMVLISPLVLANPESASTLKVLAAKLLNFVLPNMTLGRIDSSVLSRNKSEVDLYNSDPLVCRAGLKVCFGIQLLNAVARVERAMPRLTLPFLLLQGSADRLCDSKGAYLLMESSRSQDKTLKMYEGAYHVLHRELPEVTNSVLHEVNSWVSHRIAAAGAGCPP
Experimental: as §1, §2

[4] = tested on: monoacylglycerol lipase (MAGL); test: CATCH subcellular compartment imaging in hippocampus with synapsin and MAP2 immunostaining; assay type: in vivo, mouse
Source text: Because MAGL is restricted in localization to presynaptic axonal terminals, whereas FAAH is expressed in neuronal soma, the inventors sought to determine whether CATCH could detect on-and off-target MJN110-yne binding across subcellular compartments. The inventors focused on the well-characterized CA3 to CA1 projection in the hippocampus as it allowed us to observe both axon terminals and soma in the same field of view.
(§3) CATCH labeling: For 100-micron sections labeling, the full CATCH reaction buffer contains: 5 μM AF647-picolyl azide, 150 μM CuSO4, 300 μM BTTP, 2.5 mM sodium ascorbate, and 10% DMSO in PBS. Tissue sections were incubated in click incubation buffer (without sodium ascorbate) overnight at RT. Tissues were then transferred to newly prepared incubation buffer and 100 mM freshly prepared sodium ascorbate was subsequently added to initiate the reaction. After 1 hour at RT in the dark with minor agitation, the reaction was quenched by addition of 4 mM EDTA in PBS (pH=8.0) and samples were washed 3×10 min with PBST. After removing click reaction cocktail, samples were stained by DAPI (1:3000 dilution in PBS from 10 μM stock) for 15 min at RT and would be ready for RI matching and imaging. They could also undergo further staining for cell type registration. For 500-micron sections, 300 μM CuSO4 and 600 μM BTTP were used for incubation and reaction. To achieve full labeling, tissues were incubated at 37° C. for 2 days, and underwent 4 rounds of 1 h click reaction at RT.
Immunostaining: Samples were incubated with primary antibodies in PBST overnight at 4° C. unless otherwise noted. Samples were then washed with PBST, 3×30 min, RT and transferred to secondary antibodies diluted in PBST. Samples were incubated with secondary antibodies overnight, RT and washed with PBST 3×30 min. For antibody elution, imaged slides were dismounted, and tissues were washed by 8% PBS-SDS (pH=7.0) at 60° C. for 8 hours. Samples were then washed by PBST 3×10 min at RT to remove residual SDS and could undergo the next round of staining.
Subcellular compartment intensity analysis: For MJN110-yne characterization, images were acquired at 5 μm from the tissue surface where the highest immunostaining signal can be observed. Different cellular compartments were identified by applying a threshold in immunostaining signal and mean drug labeling intensity was measured in the selected threshold region. Three random squares were drawn in nucleus in different cells and their average intensity was used as background. The recorded intensity value in soma or axonal terminal was then subtracted by the intensity in the nucleus for background adjustment. Data was then normalized to the average intensity of the control group as indicated in each figure legends.

[5] = biological target: T1, FAAH; test: Competitive CATCH: parental PF7845 followed by PF7845-yne probe; assay type: in vivo
Source text: After establishing CATCH's specificity, scalability, compatibility, and resolution, finally, the inventors tested if CATCH can be used to quantitatively resolve dose-dependent target engagement after in vivo drug administration. […] In this competitive CATCH approach, animals are first treated with a dose range of the parental drugs, followed by a single high dose of the alkyne probes. The dose-dependent target engagement by the parental drug can be recorded based on the competitive blockade of signal in an anatomically specific manner (FIG. 8, A).
The inventors treated mice with 0.01-1 mg/kg of parental PF7845 followed by 1 mg/kg PF7845-yne probe to readout the dose-dependent brain targets of PF7845 by competitive CATCH. […] Conversely, the inventors adopted a direct approach to visualize dose-dependent alkyne drug PK properties (FIG. 8, C).
Sample collection: Inhibitors were administered to mice in a vehicle of 10% DMSO, 2% Tween-80 in saline for intraperitoneal (i.p.) injections. After drug injection at designated dose and time, mice were heavily anesthetized with isoflurane and then transcardially perfused with ice cold PBS followed by ice cold 4% PFA in PBS with sucrose. Mouse brains or other peripheral tissues were then dissected out and post fixed in 4% PFA overnight at 4° C. Tissues were washed with PBS, embedded in 2% agarose and sectioned as 100-micron or 500-micron tissue sections by vibratome (Leica VT1000S). Tissue sections were stored in PBS with 0.02% sodium azide at 4° C. for further processing.
as §3

CN(C(=O)n1cnc(-c2ccc[n+]([O-])c2)c1)C1CCCCC1 [BIA-10-2474]
Clinical safety / toxicity [1]: Unanticipated toxicity | Clinical safety / toxicity ([1]; listed as BIA 10-2474): associated with clinical neurological toxicities

C#Cc1ccc(C(c2ccc(Cl)cc2)N2CCN(C(=O)ON3C(=O)CCC3=O)CC2)cc1 (stereo not drawn) [MJN110-yne]
Off-target engagement in gel-based CC-ABPP [2]: substantial off-target engagement of FAAH | Target engagement in gel-based CC-ABPP [3]: selectively engaged MAGL | Subcellular localisation of CATCH signal, low dose ([4]; 1 mg/kg, hippocampus CA1): binding in presynaptic terminals; also recorded: restricted to synapsin positive axon terminals | Overall fluorescence intensity in hippocampus ([4]; 20 mg/kg vs 1 mg/kg): overall higher fluorescence intensity | Subcellular localisation of CATCH signal, high dose ([4]; 20 mg/kg, hippocampus): spread to the neuronal soma | Specificity of CATCH signals ([4]; pretreatment with parent MJN110 and MAGL−/− mice): confirmed the specificity

O=C(Nc1cccnn1)N1CCC(=Cc2cccc(Oc3ccc(C(F)(F)F)cn3)c2)CC1 [PF7845]
FAAH target binding by competitive CATCH ([5]; 0.01 mg/kg PF7845, then 1 mg/kg PF7845-yne): no target binding was detected | FAAH inhibition by competitive CATCH, cortex vs hippocampus ([5]; 0.02 mg/kg PF7845, then PF7845-yne 1 mg/kg, 1 h, i.p.): Cortical PF7845-yne is fully blocked; also recorded: fully inhibited in the cortex but not in the hippocampus | FAAH inhibition by competitive CATCH ([5]; 0.05 mg/kg PF7845, then 1 mg/kg PF7845-yne): full FAAH inhibition was achieved | Duration of FAAH blockage to competitive probe binding ([5]; 24 hours after PF7845 administration): sustained FAAH blockage to competitive probe binding | Effect of pre-treatment on PF7845-yne-generated CATCH signals across the brain ([5]; pharmacological blocking experiment): completely abolished | Effect of pre-treatment on MJN110-yne binding in soma and axon terminals ([4]; PF7845 pre-treatment, then MJN110-yne, hippocampus): significantly suppressed MJN110-yne binding in the soma, but not axon terminals | Clinical safety / toxicity [1]: considered a safe FAAH inhibitor
